For 15 compounds, T/C results are on record in PubChem BioAssay AID200 (DTP/NCI, 2004).

The test system of the experiment is B6C3F1 mice, B16 melanoma ip, median survival T/C. Nature of the experiment: NCI In Vivo Anticancer Drug Screen. Data for tumor model B16 Melanoma (intraperitoneal) in B6C3F1 mice. Conditions: endpoint: median survival time, schedule: Q01DX009 (ip), higher = longer survival. As to the method: The antitumor activity of compounds was measured in mice bearing transplantable tumors. Survival or tumor size were measured and the results are expressed as the measurement made in the treated group (T) divided by the measurement made in the vehicle treated control group (C). The tumor model used in this assay is B16 Melanoma (intraperitoneal) in B6C3F1 mice

Where [1] appears, read: dose: 3.12 mg/kg/injection, vehicle: saline with Tween-80.
Setting [2] is: dose: 6.25 mg/kg/injection, vehicle: saline with Tween-80.
[3] abbreviates: dose: 25.0 mg/kg/injection, vehicle: saline with Tween-80.
Setting [4] is: dose: 50.0 mg/kg/injection, vehicle: saline with Tween-80.
[5] abbreviates: dose: 12.5 mg/kg/injection, vehicle: saline.

SMILES strings stand for the structures. Values joined by “and” are separate entries in the source; they are usually repeats but may differ in a detail not shown here. Equal entries are not always repeated. Toxic doses and inconclusive results are not listed.

With `CCC1=C[C@H]2CN(CCc3c([nH]c4ccccc34)[C@@](C(=O)OC)(c3cc4c(cc3OC)N(C)[C@H]3[C@@](O)(C(=O)NN)[C@H](O)[C@]5(CC)C=CCN6CC[C@]43[C@@H]65)C2)C1`, the T/C is, setting by setting: (dose: 15.62 micrograms/kg/injection, vehicle: water) 116 % of control; (dose: 31.25 micrograms/kg/injection, vehicle: water) 119 % of control; (dose: 125.0 micrograms/kg/injection, vehicle: water) 167 % of control; (dose: 250.0 micrograms/kg/injection, vehicle: water) 166 % of control; (dose: 500.0 micrograms/kg/injection, vehicle: water) 176 % of control.

For `O=Cc1ccc([N+](=O)[O-])s1`, the T/C under setting [1] was 98 % of control; the T/C under setting [2] is 105 % of control; the T/C (dose: 12.5 mg/kg/injection, vehicle: saline with Tween-80) is 101 % of control; the T/C under setting [3] is 101 % of control; the T/C under setting [4] was 88 % of control.

Consider `Nc1ccc(S(=O)(=O)Nc2cnc3c(Cl)cccc3n2)cc1`, for which the T/C runs as follows: (dose: 50.0 mg/kg/injection, vehicle: DMSO) 97 % of control; (dose: 100.0 mg/kg/injection, vehicle: DMSO) 100 % of control; (dose: 200.0 mg/kg/injection, vehicle: DMSO) 116 % of control; (dose: 400.0 mg/kg/injection, vehicle: DMSO) 105 % of control.

Consider `NC(=O)CC(NC(=O)OCC1c2ccccc2-c2ccccc21)C(=O)O` (stereo not drawn), for which the T/C was 116 % of control (dose: 12.5 mg/kg/injection, vehicle: Klucel (hydroxypropylcellulose) (HPC)) and 107 % of control (dose: 25.0 mg/kg/injection, vehicle: Klucel (hydroxypropylcellulose) (HPC)).

`O=C/C(Cl)=C(/Cl)C(=O)O`: the T/C (dose: 1.25 mg/kg/injection, vehicle: saline with Tween-80) was 99 % of control; the T/C (dose: 2.5 mg/kg/injection, vehicle: saline with Tween-80) is 86 % of control; the T/C (dose: 5.0 mg/kg/injection, vehicle: saline with Tween-80) was 89 % of control; the T/C (dose: 10.0 mg/kg/injection, vehicle: saline with Tween-80) was 92 % of control; the T/C (dose: 20.0 mg/kg/injection, vehicle: saline with Tween-80) is 102 % of control.

With `C=C(c1ccc(OC)c(OC)c1)c1nccc2cc(OC)c(OC)cc12`, the T/C is, setting by setting: (dose: 50.0 mg/kg/injection, vehicle: Klucel (hydroxypropylcellulose) (HPC)) 103 % of control; (dose: 100.0 mg/kg/injection, vehicle: Klucel (hydroxypropylcellulose) (HPC)) 98 % of control; (dose: 200.0 mg/kg/injection, vehicle: Klucel (hydroxypropylcellulose) (HPC)) 87 % of control; (dose: 400.0 mg/kg/injection, vehicle: Klucel (hydroxypropylcellulose) (HPC)) 97 % of control; (dose: 800.0 mg/kg/injection, vehicle: Klucel (hydroxypropylcellulose) (HPC)) 90 % of control.

For `CC1=C(O)C(=O)[C@@H]2O[C@@H]2C1=O`, the T/C is 87 % of control and 92 % of control (dose: 0.78 mg/kg/injection, vehicle: saline); 91 % of control and 98 % of control (dose: 1.56 mg/kg/injection, vehicle: saline); 103 % of control (dose: 3.12 mg/kg/injection, vehicle: saline); 107 % of control (dose: 3.13 mg/kg/injection, vehicle: saline); 112 % of control and 94 % of control (dose: 6.25 mg/kg/injection, vehicle: saline); 108 % of control and 106 % of control under setting [5].

As to `CC(O)CNCCNc1ccc(NCCNCC(C)O)c2c1C(=O)c1c(O)ccc(O)c1C2=O` (stereo not drawn), the T/C (dose: 1.0 mg/kg/injection, vehicle: distilled water + Tween-80) was 169 % of control; the T/C (dose: 2.0 mg/kg/injection, vehicle: distilled water + Tween-80) is 194 % of control; the T/C (dose: 4.0 mg/kg/injection, vehicle: distilled water + Tween-80) was 221 % of control; the T/C (dose: 8.0 mg/kg/injection, vehicle: distilled water + Tween-80) was 180 % of control.

In the case of `O=C(C/C(=N\C(=S)Nc1cc(C(F)(F)F)ccc1Cl)NO)N1CCCC1`, the T/C by setting is: under setting [3], 123 % of control; under setting [4], 116 % of control; (dose: 100.0 mg/kg/injection, vehicle: saline with Tween-80) 94 % of control.

On to `CCCCC(CC)(CC(=N)C(C)(C)C)c1ccccc1` (stereo not drawn), for which the T/C is 104 % of control (dose: 25.0 mg/kg/injection, vehicle: saline + Tween-80 + alcohol) and 96 % of control (dose: 50.0 mg/kg/injection, vehicle: saline + Tween-80 + alcohol).

Regarding `c1cc[c]([Sn]([c]2ccccc2)([c]2ccccc2)[n]2cccc2)cc1`, the T/C was 113 % of control (dose: 0.79 mg/kg/injection, vehicle: saline with Tween-80); 98 % of control (dose: 1.56 mg/kg/injection, vehicle: saline with Tween-80); 93 % of control under setting [1]; 113 % of control under setting [2].

In the case of `C=C1C(=O)OC2/C=C(\C)CC(O)/C=C(/CO)CC(OC(=O)/C(C)=C/C)C12` (stereo not drawn), the T/C was 115 % of control (dose: 7.5 mg/kg/injection, vehicle: saline + alcohol); 102 % of control (dose: 7.5 mg/kg/injection, vehicle: saline with Tween-80); 123 % of control (dose: 15.0 mg/kg/injection, vehicle: saline + alcohol); 103 % of control (dose: 15.0 mg/kg/injection, vehicle: saline with Tween-80); 98 % of control (dose: 15.0 mg/kg/injection, vehicle: saline); 97 % of control (dose: 30.0 mg/kg/injection, vehicle: saline with Tween-80). The T/C by setting is: (dose: 30.0 mg/kg/injection, vehicle: saline) 116 % of control; (dose: 60.0 mg/kg/injection, vehicle: saline + alcohol) 155 % of control; (dose: 60.0 mg/kg/injection, vehicle: saline with Tween-80) 98 % of control; (dose: 60.0 mg/kg/injection, vehicle: saline) 120 % of control.

For the compound `CC(=O)/C(=C\c1ccc(Cl)c(Cl)c1)C(=O)CCN(C)C`, the T/C was 94 % of control under setting [5]; 93 % of control (dose: 25.0 mg/kg/injection, vehicle: saline); 89 % of control (dose: 50.0 mg/kg/injection, vehicle: saline).

Take `NC(N)=NCCCC(NC(=O)c1ccccc1)C(=O)O` (stereo not drawn): the T/C is, setting by setting: (dose: 40.0 mg/kg/injection, vehicle: saline with Tween-80) 95 % of control and 102 % of control (2×); (dose: 80.0 mg/kg/injection, vehicle: saline with Tween-80) 122 % of control and 95 % of control and 96 % of control; (dose: 160.0 mg/kg/injection, vehicle: saline with Tween-80) 108 % of control and 102 % of control; (dose: 320.0 mg/kg/injection, vehicle: saline with Tween-80) 108 % of control and 105 % of control and 106 % of control; (dose: 640.0 mg/kg/injection, vehicle: saline with Tween-80) 113 % of control.

Take `CN(C)N=Nc1ccc(Cl)c2ncccc12`: the T/C reads like this: (dose: 3.13 mg/kg/injection, vehicle: other) 115 % of control; (dose: 6.25 mg/kg/injection, vehicle: other) 106 % of control; (dose: 12.5 mg/kg/injection, vehicle: other) 109 % of control; (dose: 25.0 mg/kg/injection, vehicle: other) 117 % of control; (dose: 50.0 mg/kg/injection, vehicle: other) 114 % of control.
